≈ marks a conversion by molar mass, not a printed value. Read-outs that look alike come from different tables or passages of the source.
Experiments:
[1] = system: urease-positive clinical isolate of P. vulgaris; experiment: Urease inhibitory activity against P. vulgaris (Christensen's urea medium, 560 nm); format: cell-based; conditions: Proteus vulgaris; for IC50: 24 h at 37 °C, read at 560 nm
Procedure: To assess the inhibition of urease activity by synthetic compounds, Christensen’s urea.
medium containing urea and phenol red (pH indicator) was used for the preparation of two-fold serial dilutions of compounds in 96-well microtiter plates. Cell suspension of a urease-positive clinical isolate of P. vulgaris was prepared in a urea medium and added to each well. The turbidity of bacterial suspension was adjusted to 0.5 McFarland using a spectrophotometer, and also, the density of inoculated suspension was 1 × 10^6 CFU/ml. The concentrations of compounds were in the range of 1–512 µg/ml.
Inoculated media without adding any compound was considered a positive control, while uninoculated media were used as a negative control (blank). The anti-urease activity was assessed spectroscopically at 560 nm after 24 h incubation at 37 °C[14].

[2] = system: clinical isolate of P. vulgaris; experiment: Antimicrobial activity, broth microdilution (CLSI); format: cell-based; conditions: Proteus vulgaris
Procedure: (§1) Then, 100 μL of each dilution was transferred into the well of a microtiter plate and inoculated with 100 μL of cell suspension with a final density of 1–5 × 10^3 CFU/ml for yeasts and 1–1.5 × 10^6 cells/ml for bacteria. Plates were incubated at proper temperature overnight, and the minimum inhibitory concentration (MIC) of compounds was determined as the lowest concentration that prevented visible growth of tested microorganisms compared with the growth in the control wells (wells without tested compounds). […] All experiments were performed in duplicate[30],[31].

S. aureus ATCC 25923 = experiment: Antimicrobial activity, broth microdilution (CLSI); format: cell-based; conditions: Staphylococcus aureus, ATCC25923
Procedure: as §1

E. coli ATCC 25922 = experiment: Antimicrobial activity, broth microdilution (CLSI); format: cell-based
Procedure: as §1

[3] = In vitro cytotoxic evaluation (MTT assay); format: cell-based; conditions: human, MOLT-4 cells
Procedure: MOLT-4 (human acute lymphoblastic leukemia) cells were cultures in RPMI-1640 medium supplemented with 10% heat-inactivated fetal bovine serum. Cell viability was measured by the MTT assay. MOLT-4 cells were seeded into 96-well micro-culture plates. After 24 h, the culture medium was replaced with a medium containing different concentrations of newly synthesized derivatives. Control wells were supplemented with the same volume of growth medium not containing any drugs. Cells were then incubated at 37 °C for 72 h. At the end of the exposure time, the medium was removed and MTT solution of 0.5 mg/ml was added to each well. The plates were incubated at 37 °C for 4 h, after which DMSO was added to each well to solubilize the formed formazan crystals, and the absorbance of each well was read with a microplate reader at 570 nm.

urease [4] = molecular target: T1, urease (Canavalia ensiformis, UniProt P07374); experiment: biochemical; format: biochemical
T1 sequence (P07374 whole entry, looked up): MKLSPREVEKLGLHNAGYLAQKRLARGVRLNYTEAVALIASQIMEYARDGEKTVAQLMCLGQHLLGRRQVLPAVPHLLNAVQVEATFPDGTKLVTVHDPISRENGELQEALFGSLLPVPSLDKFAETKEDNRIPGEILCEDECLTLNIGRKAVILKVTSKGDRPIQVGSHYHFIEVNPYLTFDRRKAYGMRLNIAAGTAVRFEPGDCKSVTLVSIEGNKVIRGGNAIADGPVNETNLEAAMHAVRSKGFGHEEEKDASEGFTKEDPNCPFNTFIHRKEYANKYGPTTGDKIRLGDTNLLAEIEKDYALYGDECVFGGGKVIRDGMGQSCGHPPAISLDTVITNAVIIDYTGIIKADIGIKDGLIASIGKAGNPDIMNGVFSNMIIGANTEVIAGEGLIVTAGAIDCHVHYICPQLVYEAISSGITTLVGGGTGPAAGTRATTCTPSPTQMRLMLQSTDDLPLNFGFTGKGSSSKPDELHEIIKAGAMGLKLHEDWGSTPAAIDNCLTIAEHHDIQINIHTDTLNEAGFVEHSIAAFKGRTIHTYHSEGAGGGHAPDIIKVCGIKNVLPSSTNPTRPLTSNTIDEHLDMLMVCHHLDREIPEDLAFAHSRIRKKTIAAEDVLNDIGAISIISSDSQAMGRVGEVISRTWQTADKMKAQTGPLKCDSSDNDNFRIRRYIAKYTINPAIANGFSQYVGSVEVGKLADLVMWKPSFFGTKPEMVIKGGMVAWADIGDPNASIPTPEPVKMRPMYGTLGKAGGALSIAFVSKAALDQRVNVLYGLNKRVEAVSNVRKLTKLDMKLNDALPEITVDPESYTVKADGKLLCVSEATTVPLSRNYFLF
Procedure: The assay was performed exactly according to our previous report. Briefly, 850 μL of urea and 15 μL urease (0.135 units dissolved in PBS, pH 7.4) were added to 100 μL of the synthesized derivatives at different concentrations. After 30 min, to 100 μL of the incubated solution, 500 μL solution I (5.0 g phenol and 25.0 mg sodium nitroprusside in 500 mL water) was added followed by the addition of 500 μL of solution II (2.5 g sodium hydroxide, 4.2 mL sodium hypochlorite, and 5% chlorine in 500 mL water) which was further incubated at 37 °C for 30 min. The absorbance was determined by measuring indophenols at 625 nm. Thiourea was used as the standard inhibitor for urease. The IC50 values for all synthesized compounds were calculated using GraphPad Prism software (GraphPad Software, Inc., San Diego, CA)[20].

C. albicans ATCC 10261 = experiment: Antimicrobial activity, broth microdilution (CLSI); format: cell-based; conditions: Candida albicans, ATCC10261
Procedure: The antimicrobial activity of designed compounds was investigated using broth microdilution.
(§2) Briefly, twofold serial dilutions of the compounds were prepared in Mueller–Hinton Broth (MHB, HiMedia) for bacterial strains and RPMI-1640 (Sigma-Aldrich) for yeast strain (Ranging 1–512 µg/ml). Then, 100 μL of each dilution was transferred into the well of a microtiter plate and inoculated with 100 μL of cell suspension with a final density of 1–5 × 10^3 CFU/ml for yeasts and 1–1.5 × 10^6 cells/ml for bacteria. Plates were incubated at proper temperature overnight, and the minimum inhibitory concentration (MIC) of compounds was determined as the lowest concentration that prevented visible growth of tested microorganisms compared with the growth in the control wells (wells without tested compounds). Moreover, the minimum bactericidal/fungicidal concentration (MBC/MFC) of compounds was determined by transferring the 10 µl of clear wells into the agar media. Standard antibacterial and antifungal agents (Ciprofloxacin and Fluconazole) were evaluated. All experiments were performed in duplicate[30],[31].

S. aureus biofilm = experiment: Inhibition of biofilm formation (crystal violet assay); format: cell-based; conditions: Staphylococcus aureus, read-out: inhibition in the development of biofilm by S. aureus
Procedure: To evaluate the ability of the synthesized compounds 6a-i to prevent biofilm formation by standard species of S. aureus (ATCC25923) and MRSA strain, biofilms were pre-formed in 96 well plates, as previously described. Firstly, bacterial strains were inoculated into Tryptic Soy Broth (TSB) medium. The cells were cultivated on a shaker overnight for 180 r/min at 37 °C. Then, the suspension was centrifuged, and the cells were washed with PBS three times. Diluted cell suspension of strains was added into the wells with 1 × 10^6 final concentration. The plates were incubated for 4 h at 37 °C. After that, 100 μl of each of the dissolved compounds was added to a final concentration of […] in the wells. The plates were further incubated for 24 h at 37 °C. Following incubation, the crystal violet assay was performed to evaluate the inhibition of biofilm formation. For this purpose, the supernatant of the wells was aspirated gently, and the wells were washed three times with sterile distilled water. […] Assessment of biofilm formation was performed by transferring 100 μl of the destaining solution to a new plate and measuring the absorbance at 590 nm using a microplate reader. […] The mean absorbance (OD590 nm) of the samples was determined, and percentage inhibition was obtained using Eq. (1) as follows: 1 Percentageinhibition:ODblank-ODtest×100/ODblank

[5] = system: methicillin-resistant Staphylococcus aureus (MRSA) isolates; experiment: Antimicrobial activity against resistant isolates; format: cell-based
Procedure: Regarding the antibacterial activity of 6n and 6o against the standard strain of S. aureus, these derivatives were tested against methicillin-resistant Staphylococcus aureus (MRSA) isolates.
as §2

urease [6] = molecular target: T1, urease; experiment: Enzyme kinetic study of urease inhibition (Lineweaver–Burk); format: biochemical
Procedure: A Lineweaver–Burk plot was generated to identify the type of inhibition, and the Michaelis–Menten constant (Km) value was determined from the plot between the reciprocal of the substrate concentration (1/[S]) and reciprocal of enzyme rate (1/V) over various inhibitor concentrations. The experimental inhibitor constant (Ki) value was constructed by secondary plots of the inhibitor concentration [I] versus Km.

urease [7] = conditions: read-out: IC50, urease inhibition, cited from earlier work
[8] = Escherichia coli, ATCC25922, read-out: MIC

Compound	IC50 [1] [µg/mL]	inhibition at 512 µg/mL ([1]; at 512 µg/ml) [%]	MIC [2] [µg/mL]	MIC (S. aureus ATCC 25923) [µg/mL]	MIC (E. coli ATCC 25922; [8]) [µg/mL]	melting point [°C]	viability at 72 h, 100 µM [3] [%]	IC50 (urease [4]) [nM]	MIC (C. albicans ATCC 10261) [µg/mL]	inhibition at 512 µg/mL (S. aureus biofilm) [%]	MBC (S. aureus ATCC 25923) [µg/mL]	MIC (E. coli ATCC 25922) [µg/mL]	MBC (E. coli ATCC 25922; Escherichia coli, ATCC25922) [µg/mL]	MIC [5] [µg/mL]	Ki (urease [6]) [nM]	type of inhibition (urease [6]; Lineweaver–Burk plot, 6i at 0, 0.5, 1 and 2 µM)	IC50 (urease [7]; arylhydrazide Schiff base-thiazolidinones) [nM]	IC50 (urease [7]; 4-thiazolidinone analogs) [nM]	IC50 (urease [7]; thiazolidine carboxylic acid lead) [nM]
O=C(CC1SC(=S)N(Cc2ccccc2)C1=O)NC1CCCC1 (stereo not drawn) [Compound 6h, 2-(3-benzyl-4-oxo-2-thioxothiazolidin-5-yl)-N-cyclopentylacetamide]	≥ 512	48.5	> 512	> 512	> 512	167 to 169	95 ± 4.2	1860 ± 290	> 512	–	–	–	–	–	–	–	–	–	–
C=CCNC(=O)CC1SC(=S)N(CC(C)C)C1=O (stereo not drawn) [Compound 6o, N-allyl-2-(3-isobutyl-4-oxo-2-thioxothiazolidin-5-yl)acetamide]	–	–	> 512	128 (≈ 447 µM)	512 (≈ 1790 µM)	164 to 166	97.3 ± 3.5	9270 ± 1650	> 512	27	256 (≈ 894 µM)	512 (≈ 1790 µM)	> 512	512 (≈ 1790 µM)	–	–	–	–	–
CCCCN1C(=O)[C@@H](CC(=O)NCc2ccccc2)SC1=S (racemic) [Compound 6i, N-benzyl-2-(3-butyl-4-oxo-2-thioxothiazolidin-5-yl)acetamide]	17.8 ± 3.75 (≈ 52.8 µM)	–	> 512	> 512	> 512	172 to 174	97.8 ± 2.5	1470 ± 110	> 512	–	–	–	–	–	1170	competitive	–	–	–
CCCCNC(=O)CC1SC(=S)N(Cc2ccccc2)C1=O (stereo not drawn) [Compound 6e, 2-(3-benzyl-4-oxo-2-thioxothiazolidin-5-yl)-N-butylacetamide]	15.3 ± 2.4 (≈ 45.4 µM)	–	> 512	> 512	> 512	166 to 168	91.7 ± 2.8	1640 ± 450	> 512	–	–	–	–	–	–	–	–	–	–
CCCNC(=O)CC1SC(=S)N(CC(C)C)C1=O (stereo not drawn) [Compound 6n, 2-(3-isobutyl-4-oxo-2-thioxothiazolidin-5-yl)-N-propylacetamide]	–	–	> 512	128 (≈ 444 µM)	> 512	160 to 162	96.4 ± 2.2	2380 ± 490	> 512	37	> 512	–	–	128 (≈ 444 µM)	–	–	–	–	–
N#Cc1ccc(C(=O)NN2C(=O)CSC2c2ccccc2O)cc1 (stereo not drawn) [D]	–	–	–	–	–	–	–	–	–	–	–	–	–	–	–	–	4100 ± 20	–	–
COc1cc(/C=N\N=C2\NC(=O)CS2)c(OC)cc1Br [C]	–	–	–	–	–	–	–	–	–	–	–	–	–	–	–	–	–	1730 ± 1000	–
CCCNC(=O)CC1SC(=S)N(Cc2ccccc2)C1=O (stereo not drawn) [Compound 6d, 2-(3-benzyl-4-oxo-2-thioxothiazolidin-5-yl)-N-propylacetamide]	126 ± 8.65 (≈ 390 µM)	–	> 512	> 512	> 512	165 to 167	95.5 ± 3.2	1850 ± 660	> 512	–	–	–	–	–	–	–	–	–	–
CC(C)CNC(=O)CC1SC(=S)N(Cc2ccccc2)C1=O (stereo not drawn) [Compound 6f, 2-(3-benzyl-4-oxo-2-thioxothiazolidin-5-yl)-N-isobutylacetamide]	32.4 ± 5.26 (≈ 96.2 µM)	–	> 512	> 512	> 512	164 to 166	91.9 ± 1.3	1590 ± 470	> 512	–	–	–	–	–	–	–	–	–	–
C=CCNC(=O)CC1SC(=S)N(Cc2ccccc2)C1=O (stereo not drawn) [Compound 6g, N-allyl-2-(3-benzyl-4-oxo-2-thioxothiazolidin-5-yl)acetamide]	61.7 ± 6.41 (≈ 192 µM)	–	> 512	> 512	> 512	–	91.6 ± 3.7	1610 ± 500	> 512	–	–	–	–	–	–	–	–	–	–
O=C(O)[C@@H]1CSCN1 [A]	–	–	–	–	–	–	–	–	–	–	–	–	–	–	–	–	–	–	3030 ± 98
